Assay results as given in patent US9687456B2, “Nutritional compositions for modulating inflammation including exogenous vitamin K2” (NESTEC S.A., priority 2009, dated 2017).

Experiments:
Format in all cases: in vivo, Sprague-Dawley rats
[1] = system: mixed muscle protein synthesis; assay: LPS-treated rats: fractional rate of mixed muscle protein synthesis (Ks), radioactive phenylalanine incorporation; settings: oral 25 or 50 microgram daily over 7 days, LPS IP, conditions of inflammatory sepsis, compared to LPS treatment
Experimental: Male Sprague-Dawley rats (175 g) are kept on a 12-h light:dark cycle with food (Harlan-Teklad Rodent Chow, Madison, Wis.) and water provided freely. Animals are administered daily doses of vitamin K2 (MK-7) or saline (control) via oral gavage over 7 days. Stock solutions of vitamin K2 are prepared containing 3.5 g/L HCO-60 and 1 g/L of […] in buffer A (0.15 M NaCl, 0.05 M Tris-HCl, pH 7.5). The K2 is dissolved by sonication during five pulses of 5 set with an amplitude of […]. Solutions thus obtained are clear, homogeneous, and stable. Shortly before vitamin K administration the stock solutions are diluted five times with buffer A, leading to a final HCO-60 concentration of 0.7 g/L. Further dilutions (as required) are made with 0.7 g/L HCO-60 in buffer A. Each dilution step is followed by sonication as described above. In all cases vitamin K2 is administered to the rats in 0.5 mL samples, with either 25 or 50 microgram oral doses. […]
Measurement of Protein Synthesis—The fractional rate of synthesis (Ks) is estimated from the rate of incorporation of radioactive phenylalanine into total mixed muscle protein using the specific radioactivity of serum phenylalanine as representative of the precursor pool. […]

[2] = system: 4E-BP1 (Thr37); assay: LPS-treated rats: mTOR signaling to eIFs, 4E-BP1 phosphorylation in gastrocnemius muscle; settings: oral 25 or 50 microgram daily over 7 days, LPS IP, compared to LPS treatment
Experimental: (§1) Male Sprague-Dawley rats (175 g) are kept on a 12-h light:dark cycle with food (Harlan-Teklad Rodent Chow, Madison, Wis.) and water provided freely. Animals are administered daily doses of vitamin K2 (MK-7) or saline (control) via oral gavage over 7 days. Stock solutions of vitamin K2 are prepared containing 3.5 g/L HCO-60 and 1 g/L of […] in buffer A (0.15 M NaCl, 0.05 M Tris-HCl, pH 7.5). The K2 is dissolved by sonication during five pulses of 5 set with an amplitude of 6 pm. Solutions thus obtained are clear, homogeneous, and stable. […]
(§2) Analysis of mTOR Signaling to eIFs—Gastrocnemius muscles are weighed and homogenized in 7 volumes of buffer containing 20 mM HEPES (pH 7.4), 100 mM potassium chloride, 0.2 mM EDTA, 2 mM EGTA, 50 mM sodium fluoride, 50 mM glycerophosphate, 0.1 mM phenylmethylsulfonyl fluoride, 1 mM benzamidine, 1 mM dithiothreitol (DTT), and 0.5 mM sodium vanadate. […] Samples are analyzed for the phosphorylation status of 4E-BP1 (Thr37) and ribosomal protein S6 (Ser 235/236), the anti-phosphospecific antibodies were obtained from Cell Signaling Technology, Beverly, Mass. Additionally, samples are analyzed for phosphorylated IKKα/β (Ser176/180; Cell Signaling Technology) and phosphorylated p65 (Ser536; Cell Signaling Technology).

[3] = system: IKKα/β (Ser176/180); assay: LPS-treated rats: gastrocnemius muscle immunoblot, phosphorylated IKKα/β; settings: oral 25 or 50 microgram daily over 7 days, LPS IP, compared to LPS treatment
Experimental: as §1, §2

[4] = system: plasma TNF-a; assay: LPS-induced inflammation in rats: plasma TNF-a; settings: oral gavage 25 or 50 microgram daily over 7 days, LPS 0.5 mg/kg IP on Day 7, sacrifice four hours later, compared to LPS treated animals
Experimental: Male Sprague-Dawley rats (175 g) are kept on a 12-h light:dark cycle with food (Harlan-Teklad Rodent Chow, Madison, Wis.) and water provided freely. Animals are administered daily doses of vitamin K2 (MK-7) or saline (control) via oral gavage over 7 days. Stock solutions of vitamin K2 are prepared containing 3.5 g/L HCO-60 and 1 g/L of […] in buffer A (0.15 M NaCl, 0.05 M Tris-HCl, pH 7.5). The K2 is dissolved by sonication during five pulses of 5 set with an amplitude of 6 pm. Solutions thus obtained are clear, homogeneous, and stable. Shortly before vitamin K administration the stock solutions are diluted five times with buffer A, leading to a final HCO-60 concentration of 0.7 g/L. Further dilutions (as required) are made with 0.7 g/L HCO-60 in buffer A. Each dilution step is followed by sonication as described above. In all cases vitamin K2 is administered to the rats in 0.5 mL samples, with either 25 or 50 microgram oral doses.
On the final day (Day 7), rodents are administered vitamin K2 and 2 hours later were given an IP dose of LPS (Escherichia coli serotype O111:B4, L2630, Sigma) intraperitoneally (0.5 mg/kg of body weight). Four hours later animals are sacrificed.

[5] = system: NFκB p65 (Ser536); assay: LPS-treated rats: gastrocnemius muscle immunoblot, phosphorylated p65; settings: oral 25 or 50 microgram daily over 7 days, LPS IP, compared to LPS treatment
Experimental: as §1, §2

[6] = system: ribosomal protein S6 (Ser 235/236); assay: LPS-treated rats: mTOR signaling to eIFs, ribosomal protein S6 phosphorylation in gastrocnemius muscle; settings: oral 25 or 50 microgram daily over 7 days, LPS IP, compared to LPS treatment
Experimental: as §1, §2

`CC(C)=CCC/C(C)=C/CC/C(C)=C/CC/C(C)=C/CC/C(C)=C/CC/C(C)=C/CC/C(C)=C/CC1=C(C)C(=O)c2ccccc2C1=O` [K2, vitamin K2 (MK-7)] was tested, and the “fractional rate of mixed muscle protein synthesis” value [1] was “greater preservation”, the “4E-BP1(Thr-37) phosphorylation” value [2] was “abrogates the decrease” and the “phosphorylation for IKKα/β” value [3] was “significant blunting of the drop in phosphorylation”. For the same molecule, the “rise of plasma TNF-a” value [4] was “significant decrease in the rise”, the “NFκB p65 induction” value [5] was “significant blunting” and the “ribosomal protein S6 phosphorylation” value [6] was “abrogates the decrease”.
